Measured values reported in publication PMC4608580, “Synthesis and Evaluation of Biological Activity of Antimicrobial – Pro-Proliferative Peptide Conjugates” (PLoS ONE, 2015).

System: Proteus mirabilis
Test: MIC, broth microdilution
Assay type: cell-based
Conditions: Mueller-Hinton broth, approximately 10^5 CFU/mL, 37°C, 24 h, absorbance 590 nm, at least triplicate
Method: Luria-Bertani broth (LB) and Sabouraud Dextrose broth (SB) (Biocorp, Poland) were used for cultivation of bacteria and fungi strains, respectively. Antimicrobial activity of peptides was analyzed through determination of MIC (minimal inhibitory concentration) parameter according to the standard microdilution technique performed on 96-well plates. Mueller-Hinton broth (MHB) was used as the working medium for all bacterial strains, while in case of fungi it was additionally supplemented with 2% glucose.
Briefly, inoculum was prepared from freshly grown cultures of microorganisms being at their exponential phase of growth. […] Then plates were incubated overnight at 37°C and absorbance was read at 590 nm after 24 h. […]
All peptides were screened against the wide range of microorganisms, including Gram-negative, Gram-positive bacteria and fungi from Candida species (Table 2). […] All assays were performed on liquid Mueller-Hinton broth, which was additionally supplemented with 2% glucose when fungicidal activity towards Candida spps. was analyzed.

Substance: IKKILSKIKKLL-NH2 [DK5, Lys-rich derivative of amphibian AMP temporin-1CEb, …-NH2, reference compound]
- MIC P.mirabilis: NI ^a)
